Holding throughout (type): in vivo, human
Experiment [1] has as its system cancer (lymphoma) patients. In words: treatment of tumors, cancer (lymphoma) patients. The source says:
Containing native human cyclooxygenase (COX-2), doxorubicin natural (atm) or natural substance class doxorubicin in the preparation of a pharmaceutical composition of a medicament for the treatment of tumors, cancer (lymphoma) patients diagnosed is the usual criteria for diagnosis; “effective”, “cured”, “cure” and the like in accordance with conventional criteria standards. Dose of the drug present invention are: adult three times a day, every 1.8 go for 7 days. When eight or more cycles, the treatment effect of contrast in the following table: […]

The test system of experiment [2] is general inflammation in patients. In words: general anti-inflammatory analgesic use, general inflammation patients. To be noted: two or more cycles. The source says: Containing native human cyclooxygenase (COX-2), doxorubicin natural (atm) or a pharmaceutical composition of doxorubicin substances of natural origin as a general anti-inflammatory analgesic drugs applied, general inflammation in patients diagnosed according to the usual criteria for diagnosis; “effective”, “cured”, “cure” and the like in accordance with conventional criteria standards. Dose of the drug present invention are: adult three times daily 1.8 g. Course of seven days When two or more cycles, the treatment effect of contrast in the following table: […]

A further experiment relates to nephritis patients. In words: treatment of nephritis patients, rates by traditional standard. To be noted: six or more cycles, course of seven days. The source says:
Containing native cyclooxygenase (COX-2) doxorubicin pharmaceutical compositions of natural (atm) doxorubicin or a natural substance in the class of drugs for treating nephritis application preparation, nephritis patients diagnosed according to the usual Standard diagnosis; “effective”, “markedly”, “cure” and other standards are in accordance with the traditional standard. Dose of the drug present invention are: adult three times daily 1.8 g. Course of seven days. When six or more cycles, the treatment effect of contrast in the following table: […]

Take `CC(=O)O[C@H]1C(=O)[C@@]2(C)[C@H]([C@H](OC(=O)c3ccccc3)[C@]3(O)C[C@H](OC(=O)[C@H](O)[C@@H](NC(=O)c4ccccc4)c4ccccc4)C(C)=C1C3(C)C)[C@]1(OC(C)=O)CO[C@@H]1C[C@@H]2O` [Paclitaxel]: in experiment [1] (eight or more cycles), the Cure stood at 16.3%, the Invalid was found to be 2.3% and the Markedly is 32.6%. In experiment [1] (eight or more cycles of 7 days, invention drug adult three times a day 1.8 g), the Effective was 48.8%.

In experiment [2], `[H]/N=C(/N)N[C@H]1[C@H](O)[C@@H](O)[C@H](O[C@@H]2O[C@@H](C)[C@](O)(C=O)[C@H]2O[C@@H]2O[C@@H](CO)[C@H](O)[C@@H](O)[C@@H]2NC)[C@@H](N/C(N)=N\[H])[C@@H]1O` [Streptomycin] had an Invalid of 17.14% and a Markedly of 78.57%. Further, the Effective in experiment [2] (course of seven days, invention drug adult three times daily 1.8 g) is listed as 14.29%.

Turning to `CC(C)(C)NCC(O)COc1ccccc1C#N` (stereo not drawn) [Bunitrolol], the Markedly in the experiment with nephritis patients worked out at 59%. In the experiment with nephritis patients (invention drug adult three times daily 1.8 g), this compound came in with an Effective of 93.2%.

(Values after patent US20150118214A1, “Pharmaceutical composition containing human cyclooxygenase and doxorubicin or doxorubicin analogue, preparation method therefor and use thereof in preparing drugs” (priority 2012, published 2015).)
